Reference: US20240376163A1, “PEPTIDE FOR INHIBITING CALCINEURIN AND USE THEREOF” (Seoul National University R&DB Foundation, priority 2023, published 2024)

Tested on: Jurkat T cells
Assay: mRNA sequencing of activated Jurkat T cells
Format: cell-based, human

## PEITVTPPTP [CABIN1-L-1-2]
P+I
  PHF7 FPKM: 3.075 FPKM
  PHLDA1 FPKM: 52.893 FPKM
  PIDD1 FPKM: 4.471 FPKM
  PIM3 FPKM: 72.895 FPKM
  PKIA FPKM: 18.138 FPKM
  PLAU FPKM: 82.517 FPKM
  PLEKHO1 FPKM: 36.376 FPKM
  PLK3 FPKM: 7.036 FPKM
  PMAIP1 FPKM: 37.469 FPKM
  PMEPA1 FPKM: 2.393 FPKM
  PODXL FPKM: 1.509 FPKM
  POU3F2 FPKM: 0.696 FPKM
  PPFIBP1 FPKM: 12.117 FPKM
  PPM1H FPKM: 4.178 FPKM
  PRKCA FPKM: 11.132 FPKM
  PTK2 FPKM: 13.391 FPKM
  PTPN22 FPKM: 5.119 FPKM
  PTPRE FPKM: 14.28 FPKM
  PWWP2B FPKM: 3.446 FPKM
  PXMP2 FPKM: 7.334 FPKM
  RAG1 FPKM: 0.265 FPKM
  RAG2 FPKM: 0.385 FPKM
  RAP1GAP2 FPKM: 0.285 FPKM
  RAP1GAP FPKM: 1.799 FPKM
  RDH10 FPKM: 5.524 FPKM
  REL FPKM: 5.699 FPKM
  RELB FPKM: 40.689 FPKM
  RGS3 FPKM: 2.303 FPKM
  RGS16 FPKM: 5.595 FPKM
  RMI1 FPKM: 8.198 FPKM
  RORB FPKM: 3.292 FPKM
  S1PR1 FPKM: 0.461 FPKM
  SAMD1 FPKM: 12.809 FPKM
  SECISBP2L FPKM: 12.883 FPKM
  SELPLG FPKM: 3.724 FPKM
  SEMA7A FPKM: 34.623 FPKM
  SERPINB2 FPKM: 14.103 FPKM
  SERPINE1 FPKM: 4.431 FPKM
  SH2B3 FPKM: 14.803 FPKM
  SH2D5 FPKM: 3.557 FPKM
  SH3BGRL3 FPKM: 351.357 FPKM
  SH3RF2 FPKM: 32.15 FPKM
  SHC4 FPKM: 0.686 FPKM
  SIT1 FPKM: 34.287 FPKM
  SIX6 FPKM: 19.444 FPKM
  SLC2A3 FPKM: 40.147 FPKM
  SLC2A4RG FPKM: 2.168 FPKM
  SLC7A5 FPKM: 226.44 FPKM
  SLC25A45 FPKM: 2.626 FPKM
  SLCO3A1 FPKM: 3.095 FPKM
  SLIT1 FPKM: 2.815 FPKM
  SMIM14 FPKM: 3.572 FPKM
  SOCS1 FPKM: 11.547 FPKM
  SOCS3 FPKM: 9.392 FPKM
  SOSTDC1 FPKM: 7.34 FPKM
  SPRY2 FPKM: 17.876 FPKM
  SREBF1 FPKM: 12.747 FPKM
  ST3GAL6-AS1 FPKM: 8.479 FPKM
  ST8SIA4 FPKM: 8.921 FPKM
  STARD4 FPKM: 16.105 FPKM
  STAT1 FPKM: 527.58 FPKM
  STAT5A FPKM: 3.055 FPKM
  STX11 FPKM: 2.972 FPKM
  SYTL1 FPKM: 12.555 FPKM
  TBC1D10C FPKM: 15.764 FPKM
  TBC1D20 FPKM: 18.427 FPKM
  TBX21 FPKM: 39.746 FPKM
  THY1 FPKM: 3.297 FPKM
  TIMP2 FPKM: 1.952 FPKM
  TM4SF1 FPKM: 0.907 FPKM
  TM7SF3 FPKM: 25.052 FPKM
  TMEM229B FPKM: 7.747 FPKM
  TMTC4 FPKM: 3.005 FPKM
  TNFRSF4 FPKM: 11.916 FPKM
  TNFRSF12A FPKM: 6.523 FPKM
  TNFRSF14 FPKM: 12.09 FPKM
  TNFSF9 FPKM: 2.651 FPKM
  TNRC6C FPKM: 4.485 FPKM
  TNS3 FPKM: 1.418 FPKM
  TRAF1 FPKM: 24.962 FPKM
  TRAT1 FPKM: 5.507 FPKM
  TRIM22 FPKM: 3.316 FPKM
  TSHR FPKM: 1.574 FPKM
  TSPAN2 FPKM: 2.119 FPKM
  TSPAN7 FPKM: 42.604 FPKM
  TTC28 FPKM: 1.926 FPKM
  TUBB2A FPKM: 10.912 FPKM
  TUBB3 FPKM: 5.423 FPKM
  UHRF1BP1L FPKM: 7.889 FPKM
  USP30-AS1 FPKM: 9.017 FPKM
  VANGL1 FPKM: 8.842 FPKM
  VASH2 FPKM: 4.245 FPKM
  VGF FPKM: 54.294 FPKM
  XAF1 FPKM: 16.914 FPKM
  XBP1 FPKM: 48.525 FPKM
  XYLB FPKM: 2.311 FPKM
  YBX2 FPKM: 1.594 FPKM
  ZC3H12A FPKM: 17.547 FPKM
Upon T-cell activation
  CD27 and CD70 expression: inhibited CD27 and CD70
  RNA levels of representative T-cell activation markers (IL2, IL3, NFATC1, CCL4, CCL20, CXCL8): reduced RNA levels of representative T-cell activation markers
